Assay results published in patent publication US7560229B2, “Methods of use of the enzymes of mycothiol synthesis” (priority 2002, dated 2009).
In brackets after ≈: the same amount, converted by molar mass. Read-outs that look alike come from different tables or passages of the source.

Legend:
[1] = test system: M. smegmatis transposon mutant Tn2 (MshC deficient); type: cell-based; settings: Tn2, from MIC
Description: (§1) To test this hypothesis, Tn1, Tn2, and I64 were grown on PBT plates supplemented with increasing amounts of the alkylating agents mBBr, iodoacetamide, and 1-chloro-2,4-dinitrobenzene (CDNB). The alkylating agents were poured into the molten agar.

[2] = test system: M. smegmatis transposon mutant Tn1 (MshC deficient); type: cell-based; settings: Tn1, from MIC
Description: as §1

[3] = test system: M. smegmatis chemical mutant I64 (MshC deficient); type: cell-based; settings: I64, from MIC
Description: as §1

[4] = molecular target: M. smegmatis Cys:GlcN-Ins ligase (MshC) (Mycolicibacterium smegmatis, UniProt A0QZY0); test: ATP-dependent Cys:GlcN-Ins ligase assay, substrate kinetics; settings: [ATP]=1 mM, [Cys]=100 μM
Sequence of M. smegmatis Cys:GlcN-Ins ligase (MshC) (A0QZY0 whole entry): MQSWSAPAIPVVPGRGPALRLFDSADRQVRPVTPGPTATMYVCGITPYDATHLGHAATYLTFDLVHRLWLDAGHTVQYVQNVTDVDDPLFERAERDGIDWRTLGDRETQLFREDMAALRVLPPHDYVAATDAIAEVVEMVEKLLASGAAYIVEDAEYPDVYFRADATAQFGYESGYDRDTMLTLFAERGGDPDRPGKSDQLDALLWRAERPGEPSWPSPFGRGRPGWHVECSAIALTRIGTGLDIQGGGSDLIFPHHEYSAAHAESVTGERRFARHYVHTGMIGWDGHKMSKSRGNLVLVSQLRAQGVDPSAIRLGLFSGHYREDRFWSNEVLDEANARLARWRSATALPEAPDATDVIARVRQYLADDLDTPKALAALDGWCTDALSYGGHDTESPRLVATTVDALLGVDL
Description: (§4) A minor modification of the protocol described by Anderberg et al (supra) was used for routine measurement of ATP-dependent ligase activity. The enzyme activity was assayed in a final volume of 25 μL containing 12.5 μL of the ligase in different dilutions, 50 μM GlcN-Ins, 100 μM Cys (Calbiochem), 1 mM ATP (Sigma), 1 mM MgCl2 (Fisher), 1 mM DTT (Calbiochem), 25 mM N-2-hydroxyethylpiperazine-N′-2-ethanesulfonic acid (HEPES) (Sigma), pH 7.5, and 35 μM each of the protease inhibitors (Sigma) N-α-p-tosyl-L-phenylalanylchloromethyl ketone and N-α-p-tosyl-L-lysinechloromethyl ketone. The mixture was incubated at 37° C. for 30 min. The assay was terminated by addition of 25 μL of 8 mM mBBr in acetonitrile and heating the mixture at 60° C. for 5 min to derivatize the thiols. The derivatization was quenched with the addition of 150 μl of 10 mM methanesulfonic acid and vortexing. HPLC analysis of CySmB-GlcN-Ins and CySmB was carried out by HPLC using a Beckman Ultrasphere IP (250×4.6 mm) analytical column fitted with a Brownley OD-GU 5 μ C-18 cartridge using the following linear gradients: 0 min., 100% A (0.1% TFA in water); 10 min, 100% A; 30 min, 80% A; 33 min, 100% B (7.5% methanol in acetonitrile); 36 min, 100% B; 38 min, 100% A; 60 min, 100% A (reinjection). The flow rate was 1 mL/min. and the fluorescence detection was accomplished with a 370 nm excitation filter and a 418-700 nm emission filter. The Vmax and Km values were calculated by least-squares analysis of Eadie-Hofstee plots with initial rate data using KaleidaGraph 3.5 (Synergy Software).

M. smegmatis mutant 49 = settings: cited from earlier work
[5] = test system: M. smegmatis transposon mutant mshA::Tn5; test: Isoniazid MIC by Estrip; type: cell-based; settings: Mycolicibacterium smegmatis
[6] = test system: M. smegmatis complemented mshA::Tn5 (mshA::Tn5 pAL0486); test: Isoniazid MIC by Estrip; type: cell-based; settings: Mycolicibacterium smegmatis
M. smegmatis mc^2155 = settings: mc^2155, plating on antibiotic containing media, found earlier; cited from earlier work
M. smegmatis mutant I64 [7] = test: Antibiotic sensitivity test (MIC); type: cell-based
[8] = test system: M. smegmatis chemical mutant 49; test: Isoniazid MIC by Estrip; type: cell-based; settings: Mycolicibacterium smegmatis
[9] = test system: M. smegmatis parent strain mc^2155; test: Isoniazid MIC by Estrip; type: cell-based; settings: Mycolicibacterium smegmatis; mc^2155, Estrip, 2-3 days at 37° C.
[10] = test system: M. smegmatis complemented strain 49 (49::pAL0486); test: Isoniazid MIC by Estrip; type: cell-based; settings: Mycolicibacterium smegmatis
[11] = test system: M. smegmatis mc^2155 (wild type); test: Disk assay, redox cycling agents, zone of inhibition; type: cell-based
Description: (§2) To determine sensitivity to redox cycling agents, disk assays were performed. Briefly, cells were grown to mid-log phase and a lawn of cells was plated onto PBT or LB plates supplemented with appropriate antibiotics. Various amounts of redox-cycling agents plumbagin, and […] menadione and nitrofurantoin were added to the disk in 10 μl volume and allowed to dry. The disks were placed onto the lawn of cells and incubated 2-3 days.

M. smegmatis mutant Tn2 [12] = type: cell-based
Description: as §2

M. smegmatis mutant I64 [13] = type: cell-based
Description: as §2

M. smegmatis mutant Tn1 [14] = type: cell-based
Description: as §2

[15] = test system: M. smegmatis mc^2155 (wild type)
Description: (§3) Peroxide sensitivity was determined by incubating cells (2.5×10^7 per ml) at 37° C. in Middlebrook 7H9 medium with 0.4% glucose and 0.05% TWEEN® 80 containing hydrogen peroxide at the desired level for 2 hours with shaking. Cells were diluted in fresh medium and plated on 7H10 agar. Colonies were counted when they achieved a diameter of 1-2 mm, which required 4-5 days for the wild type strain and up to 10 days for MSH-deficient mutant strains.

M. smegmatis mutant Tn2 [16] = test system: M. smegmatis mutant Tn2
Description: as §3

M. smegmatis mutant I64 [17] = settings: I64, FIG. 6
Description: as §3

M. smegmatis mutant Tn1 [18] = test system: M. smegmatis mutant Tn1
Description: as §3

N[C@@H](CS)C(=O)O = test: purified protein, by the assay type; settings: other: [ATP]=1 mM, [GlcN-Ins]=300 μM, Cys 5-400 μM; pH 7.5
Description: as §4

In the case of `O=[N+]([O-])c1ccc(Cl)c([N+](=O)[O-])c1` [CDNB, 1-chloro-2,4-dinitrobenzene], the “increase in sensitivity compared to wild type mc^2155” value (from here on “increase in sensitivity”) [1] is reported as 2-3 fold and the “increase in sensitivity” value [2] is reported as 2-3 fold.
With `CN(C)C(=O)/N=N/C(=O)N(C)C` [Diamide, diamide] the “increase in sensitivity” value [1] was “greater than 10 fold”, the “increase in sensitivity” value [3] was “doubled” and the “increase in sensitivity” value [2] was “greater than 10 fold”.
With `N[C@H]1[C@@H](OC2[C@H](O)[C@H](O)C(O)[C@H](O)[C@H]2O)O[C@H](CO)[C@@H](O)[C@@H]1O` (stereo partly drawn) [GlcN-Ins, 1D-myo-inosityl 2-amino-2-deoxy-α-D-glucopyranoside] the “Vmax (GlcN-Ins varied)” value [4] was 90 ± 7 nmol/min/mg and the Km ([4]; read-out: apparent Km for GlcN-Ins, GlcN-Ins 5-600 μM) was 72 ± 9 µM.
In the case of `NC(=O)CI` [Iodoacetamide, iodoacetamide], the “increase in sensitivity” value [1] is reported as 5 fold, the “increase in sensitivity” value [3] is reported as “two-fold” and the “increase in sensitivity” value [2] is reported as “two-fold”.
In the case of `NNC(=O)c1ccncc1` [Isoniazid, isoniazid], the MIC (M. smegmatis mutant 49; mutant 49, plating on antibiotic containing media, found earlier) is listed as greater than 50 µg/mL, the “isoniazid concentration to which strain 49 is resistant” value (M. smegmatis mutant 49; strain 49 (Newton et al. 1999)) is listed as 100 μg isoniazid/ml and the MIC [5] is listed as greater than 250 µg/mL. The MIC [6] was 2.7 µg/mL (≈ 19.7 µM), the MIC (M. smegmatis mc^2155) was 2 µg/mL (≈ 14.6 µM) and the “fold greater resistance than the wild type” value (M. smegmatis mutant I64 [7]) was 16 fold. For the same molecule, the MIC [8] was greater than 250 µg/mL, the MIC [9] was 1 µg/mL (≈ 7.29 µM) and the MIC [10] was 28 µg/mL (≈ 204 µM).
With `CC1=CC(=O)c2ccccc2C1=O` [Menadione, menadione] the “Zone of Inhibition” value ([11]; 0.1 μmol agent on disk) was 9.7 ± 0.3 mm, the “Zone of Inhibition” value ([11]; 0.5 μmol agent on disk) was 19.7 ± 0.9 mm and the “Zone of Inhibition” value (M. smegmatis mutant Tn2 [12]; Tn2, 0.1 μmol agent on disk) was 15.3 ± 2.0 mm. For the same molecule, the “Zone of Inhibition” value (M. smegmatis mutant Tn2 [12]; Tn2, 0.5 μmol agent on disk) was 16.4 ± 1.9 mm, the “Zone of Inhibition” value (M. smegmatis mutant I64 [13]; I64, 0.1 μmol agent on disk) was 8.7 ± 0.7 mm and the “Zone of Inhibition” value (M. smegmatis mutant I64 [13]; I64, 0.5 μmol agent on disk) was 26.7 ± 0.9 mm. The “Zone of Inhibition” value (M. smegmatis mutant Tn1 [14]; Tn1, 0.1 μmol agent on disk) was 20.7 ± 3.8 mm and the “Zone of Inhibition” value (M. smegmatis mutant Tn1 [14]; Tn1, 0.5 μmol agent on disk) was 31.3 ± 1.3 mm.
With `O=C1CN(/N=C/c2ccc([N+](=O)[O-])o2)C(=O)N1` [Nitrofurantoin, nitrofurantoin] the “Zone of Inhibition” value ([11]; 0.5 μmol agent on disk) was 4.7 ± 0.3 mm, the “Zone of Inhibition” value ([11]; 1.0 μmol agent on disk) was 6.0 ± 0.6 mm and the “Zone of Inhibition” value (M. smegmatis mutant Tn2 [12]; Tn2, 1.0 μmol agent on disk) was 35.0 ± 3.6 mm. The “Zone of Inhibition” value (M. smegmatis mutant I64 [13]; I64, 0.5 μmol agent on disk) was 5.0 ± 0.6 mm, the “Zone of Inhibition” value (M. smegmatis mutant I64 [13]; I64, 1.0 μmol agent on disk) was 8.7 ± 0.3 mm and the “Zone of Inhibition” value (M. smegmatis mutant Tn1 [14]; Tn1, 0.5 μmol agent on disk) was 10.7 ± 2.6 mm. The “Zone of Inhibition” value (M. smegmatis mutant Tn1 [14]; Tn1, 1.0 μmol agent on disk) was 14.0 ± 2.7 mm.
For `CC1=CC(=O)c2c(O)cccc2C1=O` [Plumbagin, plumbagin], the “Zone of Inhibition” value ([11]; 0.005 μmol agent on disk) was 11.0 ± 1.0 mm, the “Zone of Inhibition” value ([11]; 0.01 μmol agent on disk) was 13.5 ± 0.5 mm and the “Zone of Inhibition” value (M. smegmatis mutant Tn2 [12]; Tn2, 0.005 μmol agent on disk) was 15.0 ± 0.0 mm. For the same molecule, the “Zone of Inhibition” value (M. smegmatis mutant Tn2 [12]; Tn2, 0.01 μmol agent on disk) was 23.0 ± 1.0 mm, the “Zone of Inhibition” value (M. smegmatis mutant I64 [13]; I64, 0.005 μmol agent on disk) was 9.3 ± 0.9 mm and the “Zone of Inhibition” value (M. smegmatis mutant I64 [13]; I64, 0.01 μmol agent on disk) was 13.3 ± 1.9 mm. For the same molecule, the “Zone of Inhibition” value (M. smegmatis mutant Tn1 [14]; Tn1, 0.005 μmol agent on disk) was 17.0 ± 0.6 mm and the “Zone of Inhibition” value (M. smegmatis mutant Tn1 [14]; Tn1, 0.01 μmol agent on disk) was 23.0 ± 1.2 mm.
For `OO` [hydrogen peroxide], the “H2O2 concentration at which the strain can survive” value [15] was 10 mM, the “H2O2 concentration the strain is unable to tolerate” value (M. smegmatis mutant Tn2 [16]; Tn2, 2 hours at 37° C., FIG. 6) was no more than 1 MM and the “times more sensitive to hydrogen peroxide than the wild type strain” value (M. smegmatis mutant Tn2 [16]; Tn2, FIG. 6) was “about 10 times”. For the same molecule, the “tolerance to peroxide stress” value (M. smegmatis mutant I64 [17]) was “intermediate between wild type mc^2155 and the transposon mutants”, the “H2O2 concentration the strain is unable to tolerate” value (M. smegmatis mutant Tn1 [18]; Tn1, 2 hours at 37° C., FIG. 6) was no more than 1 MM and the “times more sensitive to hydrogen peroxide than the wild type strain” value (M. smegmatis mutant Tn1 [18]; Tn1, FIG. 6) was “about 10 times”.
With `Cc1c(C)n2c(CBr)c(C)c(=O)n2c1=O` [mBBr, monobromobimane] the “increase in sensitivity” value [1] was 4 fold, the “increase in sensitivity” value [3] was “more susceptible” and the “increase in sensitivity” value [2] was 4 fold.
In the case of “M. smegmatis Cys:GlcN-Ins ligase (MshC) (Mycolicibacterium smegmatis MC2 155)”, the Km (N[C@@H](CS)C(=O)O) is reported as 40 ± 3 µM and the Vmax (N[C@@H](CS)C(=O)O) is reported as 83 ± 3 nmol/min/mg.
